Results taken from PubChem BioAssay (NCI).
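1) Cells in 96-well plates. 2) Compound, 48 h, 5 concentrations. 3) Linear interpolation between surrounding doses. 4) Unreached endpoint = highest concentration. GI50 marks 50% less growth. TGI marks complete inhibition of growth.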

Assays:
Assay in all cases: growth of human tumour cells (NCI), 48 h
[1] = system: 786-0 renal
[2] = system: A498 renal
[3] = system: A549 NSCLC
[4] = system: ACHN renal
[5] = system: CAKI-1 renal
[6] = system: CCRF-CEM leukemia
[7] = system: COLO 205 colon
[8] = system: DMS 114 small cell lung
[9] = system: DMS 273 small cell lung
[10] = system: EKVX NSCLC
[11] = system: HCC-2998 colon
[12] = system: HCT-116 colon
[13] = system: HCT-15 colon
[14] = system: HL-60(TB) leukemia
[15] = system: HOP-62 NSCLC
[16] = system: HOP-92 NSCLC
[17] = system: HT29 colon
[18] = system: IGROV1 ovarian
[19] = system: K-562 leukemia
[20] = system: KM12 colon
[21] = system: KM20L2 colon
[22] = system: LOX IMVI melanoma
[23] = system: M14 melanoma
[24] = system: M19-MEL melanoma
[25] = system: MALME-3M melanoma
[26] = system: MOLT-4 leukemia
[27] = system: NCI-H226 lung
[28] = system: NCI-H23 lung
[29] = system: NCI-H460 lung
[30] = system: NCI-H522 lung
[31] = system: OVCAR-3 ovarian
[32] = system: OVCAR-4 ovarian
[33] = system: OVCAR-5 ovarian
[34] = system: OVCAR-8 ovarian
[35] = system: RPMI-8226 leukemia
[36] = system: RXF 393 renal
[37] = system: SF-268 CNS
[38] = system: SF-295 CNS
[39] = system: SF-539 CNS
[40] = system: SK-MEL-2 melanoma
[41] = system: SK-MEL-28 melanoma
[42] = system: SK-MEL-5 melanoma
[43] = system: SK-OV-3 ovarian
[44] = system: SN12C renal
[45] = system: SNB-19 CNS
[46] = system: SNB-75 CNS
[47] = system: SNB-78 CNS
[48] = system: SR leukemia
[49] = system: SW-620 colon
[50] = system: TK-10 renal
[51] = system: U251 CNS
[52] = system: UACC-257 melanoma
[53] = system: UACC-62 melanoma
[54] = system: UO-31 renal
[55] = system: DLD-1 colon
[56] = system: LXFL 529 NSCLC

C=CCCCC(C#N)(c1ccccc1)N1CCCC1 (configuration not stated)
TGI [1]: > 100 µM | TGI [2]: > 100 µM | TGI [3]: > 100 µM | TGI [4]: > 100 µM | TGI [5]: > 100 µM | TGI [6]: > 100 µM | TGI [7]: > 100 µM | TGI [8]: > 100 µM | TGI [9]: > 100 µM | TGI [10]: > 100 µM | TGI [11]: > 100 µM | TGI [12]: > 100 µM | TGI [13]: > 100 µM | TGI [14]: > 100 µM | TGI [15]: > 100 µM | TGI [16]: > 100 µM | TGI [17]: > 100 µM | TGI [18]: > 100 µM | TGI [19]: > 100 µM | TGI [20]: > 100 µM | TGI [21]: > 100 µM | TGI [22]: > 100 µM | TGI [23]: > 100 µM | TGI [24]: > 100 µM | TGI [25]: > 100 µM | TGI [26]: > 100 µM | TGI [27]: > 100 µM | TGI [28]: > 100 µM | TGI [29]: > 100 µM | TGI [30]: > 100 µM | TGI [31]: > 100 µM | TGI [32]: > 100 µM | TGI [33]: > 100 µM | TGI [34]: > 100 µM | TGI [35]: > 100 µM | TGI [36]: > 100 µM | TGI [37]: > 100 µM | TGI [38]: > 100 µM | TGI [39]: > 100 µM | TGI [40]: > 100 µM | TGI [41]: > 100 µM | TGI [42]: > 100 µM | TGI [43]: > 100 µM | TGI [44]: > 100 µM | TGI [45]: > 100 µM | TGI [46]: > 100 µM | TGI [47]: > 100 µM | TGI [48]: > 100 µM | TGI [49]: > 100 µM | TGI [50]: > 100 µM | TGI [51]: > 100 µM | TGI [52]: > 100 µM | TGI [53]: > 100 µM | TGI [54]: > 100 µM

[Co+2].[O-]c1ccccc1C=NCc1ccccc1.[O-]c1ccccc1C=NCc1ccccc1
GI50 [1]: 34.7 µM | TGI [1]: > 100 µM | GI50 [2]: > 100 µM | TGI [2]: > 100 µM | GI50 [3]: > 100 µM | TGI [3]: > 100 µM | GI50 [4]: 31.8 µM | TGI [4]: > 100 µM | GI50 [6]: 6.92 µM | TGI [6]: > 100 µM | GI50 [7]: 91.5 µM | TGI [7]: > 100 µM | GI50 [55]: 38.8 µM | TGI [55]: > 100 µM | GI50 [8]: 28.7 µM | TGI [8]: > 100 µM | GI50 [9]: 95.8 µM | TGI [9]: > 100 µM | GI50 [10]: 56.6 µM | TGI [10]: > 100 µM | GI50 [12]: 10.6 µM | TGI [12]: > 100 µM | GI50 [13]: 26.3 µM | TGI [13]: > 100 µM | GI50 [14]: 7.85 µM | TGI [14]: 82.1 µM | GI50 [16]: 11.1 µM | TGI [16]: 92.4 µM | GI50 [17]: 82.6 µM | TGI [17]: > 100 µM | GI50 [18]: 64.6 µM | TGI [18]: > 100 µM | GI50 [19]: 32.8 µM | TGI [19]: > 100 µM | GI50 [20]: 67.8 µM | TGI [20]: > 100 µM | GI50 [21]: > 100 µM | TGI [21]: > 100 µM | GI50 [22]: 77.2 µM | TGI [22]: > 100 µM | GI50 [56]: 17.2 µM | TGI [56]: > 100 µM | GI50 [23]: 28.3 µM | TGI [23]: > 100 µM | GI50 [24]: 39.8 µM | TGI [24]: > 100 µM | GI50 [25]: 21.1 µM | TGI [25]: > 100 µM | GI50 [26]: 6.37 µM | TGI [26]: > 100 µM | GI50 [28]: 51.1 µM | TGI [28]: > 100 µM | GI50 [29]: > 100 µM | TGI [29]: > 100 µM | GI50 [30]: 45.7 µM | TGI [30]: > 100 µM | GI50 [31]: 8.06 µM | TGI [31]: > 100 µM | GI50 [32]: 53.8 µM | TGI [32]: > 100 µM | GI50 [33]: 62.7 µM | TGI [33]: > 100 µM | GI50 [34]: 99.2 µM | TGI [34]: > 100 µM | GI50 [35]: 31.6 µM | TGI [35]: > 100 µM | GI50 [37]: 11.6 µM | TGI [37]: > 100 µM | GI50 [39]: 16.3 µM | TGI [39]: > 100 µM | GI50 [40]: 55.7 µM | TGI [40]: > 100 µM | GI50 [41]: 6.9 µM | TGI [41]: > 100 µM | GI50 [42]: 33.7 µM | TGI [42]: > 100 µM | GI50 [43]: > 100 µM | TGI [43]: > 100 µM | GI50 [44]: 80.1 µM | TGI [44]: > 100 µM | GI50 [45]: 59.4 µM | TGI [45]: > 100 µM | GI50 [46]: 21.3 µM | TGI [46]: 69.6 µM | GI50 [47]: > 100 µM | TGI [47]: > 100 µM | GI50 [49]: 41.4 µM | TGI [49]: > 100 µM | GI50 [50]: > 100 µM | TGI [50]: > 100 µM | GI50 [51]: 47.2 µM | TGI [51]: > 100 µM | GI50 [52]: 35.7 µM | TGI [52]: > 100 µM | GI50 [53]: 21.1 µM | TGI [53]: > 100 µM | GI50 [54]: 17.1 µM | TGI [54]: 82.9 µM
